Laboratory results from ChEMBL document CHEMBL1201862, “PubChem BioAssay data set” (2004).
Calls of active or inactive are those of the source.

Key:
BJ [1] = assay: cells; type: functional, cell-based; details: Homo sapiens
BJ [2] = assay: cytotoxicity toward BJ-TERT fibroblasts, dose response, cell-based, RAS-independent, luminescence (AID 1933); type: functional; details: Homo sapiens
[3] = biological target: Luciferin 4-monooxygenase (Photinus pyralis, UniProt P08659); assay: firefly luciferase enzyme inhibitors, dose response, biochemical, luminescence (AID 1891)
Luciferin 4-monooxygenase, sequence (P08659 whole entry): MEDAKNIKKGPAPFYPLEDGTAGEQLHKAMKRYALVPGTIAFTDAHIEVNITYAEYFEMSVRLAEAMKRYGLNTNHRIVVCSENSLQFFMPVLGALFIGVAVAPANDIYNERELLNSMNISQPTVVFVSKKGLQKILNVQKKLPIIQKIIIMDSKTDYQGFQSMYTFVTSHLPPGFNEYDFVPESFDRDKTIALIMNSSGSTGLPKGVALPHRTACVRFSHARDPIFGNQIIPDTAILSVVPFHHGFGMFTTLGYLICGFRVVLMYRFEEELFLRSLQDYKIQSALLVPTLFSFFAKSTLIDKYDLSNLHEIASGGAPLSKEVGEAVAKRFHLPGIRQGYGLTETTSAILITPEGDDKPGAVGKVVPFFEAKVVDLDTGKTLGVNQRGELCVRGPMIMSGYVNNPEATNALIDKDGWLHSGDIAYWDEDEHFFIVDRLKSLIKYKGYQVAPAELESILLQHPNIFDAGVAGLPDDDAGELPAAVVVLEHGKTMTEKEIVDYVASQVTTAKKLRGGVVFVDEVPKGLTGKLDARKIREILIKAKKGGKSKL

[4] = Luminescence Cell-Based Dose Confirmation HTS to Identify Inhibitors of Platelet Dense Granule Release. [Related pubchem assays: 1663 (Primary HTS), 1678 (Summary of Project)]; type: functional
BJ [5] = assay: cytotoxicity toward BJ-TERT-LT-ST fibroblasts, dose response, cell-based, RAS-independent, luminescence (AID 1935); type: functional; details: Homo sapiens;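 note: BJ fibroblasts immortalized with TERT plus LT and ST oncogenes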
[6] = cytotoxicity toward DRD oncogenic fibroblasts, dose response, cell-based, non-viral oncogenic, luminescence (AID 1934); type: functional; details: Homo sapiens
INS1 = assay: beta cell apoptosis inhibitors, cytokine rescue, dose response, luminescence, retest (AID 449756); type: functional, cell-based; details: Rattus norvegicus;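 note: cell death triggered by IL-1 beta plus TNF-alpha plus IFN-gamma mixture; protective hits raise ATP signal compared with cytokine alone wells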
[7] = Luminescence Cell-Based Dose Retest to Confirm Inhibitors of Cancer Stem Cells. [Related pubchem assays (depositor defined):AID2717, AID2721]; type: functional; details: Homo sapiens
[8] = biological target: T1, Zinc finger protein mex-5 (Caenorhabditis elegans, UniProt Q9XUB2); assay: MEX-5/TCR-2 RNA interaction inhibitors, dose response, biochemical, C. elegans, fluorescence polarization (AID 1960)
T1 sequence (Q9XUB2 whole entry): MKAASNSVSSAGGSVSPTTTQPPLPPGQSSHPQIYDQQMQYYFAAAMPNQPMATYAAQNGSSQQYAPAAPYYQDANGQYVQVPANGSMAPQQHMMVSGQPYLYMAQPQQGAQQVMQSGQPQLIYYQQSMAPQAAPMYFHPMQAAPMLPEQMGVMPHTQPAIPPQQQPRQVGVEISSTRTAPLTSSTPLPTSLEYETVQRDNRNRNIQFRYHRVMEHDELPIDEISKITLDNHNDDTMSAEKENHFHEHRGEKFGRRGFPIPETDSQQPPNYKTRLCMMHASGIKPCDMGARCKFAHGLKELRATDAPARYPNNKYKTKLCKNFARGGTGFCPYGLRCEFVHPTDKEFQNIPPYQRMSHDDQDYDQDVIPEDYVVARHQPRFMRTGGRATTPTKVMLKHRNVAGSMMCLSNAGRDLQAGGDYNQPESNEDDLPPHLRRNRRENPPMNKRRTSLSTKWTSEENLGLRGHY

Cytochrome P450 2D6 = Cytochrome P450 2D6 (Homo sapiens, UniProt P10635);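 note: CYP2D6 member of a cytochrome P450 panel assay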
Cytochrome P450 2D6, sequence (P10635 whole entry): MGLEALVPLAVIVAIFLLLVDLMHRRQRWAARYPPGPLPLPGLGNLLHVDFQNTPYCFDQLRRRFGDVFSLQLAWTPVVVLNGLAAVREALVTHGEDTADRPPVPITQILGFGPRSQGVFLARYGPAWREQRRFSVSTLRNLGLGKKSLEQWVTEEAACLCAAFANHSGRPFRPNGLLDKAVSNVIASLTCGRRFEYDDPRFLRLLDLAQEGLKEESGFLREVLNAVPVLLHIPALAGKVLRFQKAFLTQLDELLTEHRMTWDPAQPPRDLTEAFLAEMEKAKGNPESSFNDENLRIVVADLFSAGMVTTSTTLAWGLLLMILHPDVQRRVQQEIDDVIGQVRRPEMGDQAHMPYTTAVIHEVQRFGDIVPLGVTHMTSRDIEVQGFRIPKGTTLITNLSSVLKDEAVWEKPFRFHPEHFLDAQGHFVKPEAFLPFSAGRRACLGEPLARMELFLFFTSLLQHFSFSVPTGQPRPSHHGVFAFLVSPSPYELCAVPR

Protein skinhead-1 = biological target: T2, Protein skinhead-1 (Caenorhabditis elegans, UniProt P34707); type: functional
T2 sequence (P34707 whole entry): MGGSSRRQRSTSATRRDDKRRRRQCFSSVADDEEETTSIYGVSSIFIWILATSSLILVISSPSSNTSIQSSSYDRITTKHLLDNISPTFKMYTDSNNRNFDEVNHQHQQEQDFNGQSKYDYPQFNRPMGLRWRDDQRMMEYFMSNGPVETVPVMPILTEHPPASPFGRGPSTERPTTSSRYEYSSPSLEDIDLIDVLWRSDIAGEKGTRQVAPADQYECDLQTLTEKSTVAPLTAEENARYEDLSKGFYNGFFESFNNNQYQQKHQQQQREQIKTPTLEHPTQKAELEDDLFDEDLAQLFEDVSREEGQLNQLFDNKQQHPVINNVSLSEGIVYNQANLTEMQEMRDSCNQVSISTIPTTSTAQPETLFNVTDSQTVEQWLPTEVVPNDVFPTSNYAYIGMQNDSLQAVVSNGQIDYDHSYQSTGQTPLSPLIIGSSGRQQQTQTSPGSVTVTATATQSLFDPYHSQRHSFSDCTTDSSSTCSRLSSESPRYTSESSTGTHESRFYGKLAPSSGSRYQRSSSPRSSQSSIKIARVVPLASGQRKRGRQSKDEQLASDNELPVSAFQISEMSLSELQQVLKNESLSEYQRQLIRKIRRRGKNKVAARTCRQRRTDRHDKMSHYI

[9] = biological target: T3, RNA-binding protein pos-1 (Caenorhabditis elegans, UniProt G5EF15); assay: inhibitors of POS-1/mex-3 RNA binding, dose response, biochemical, fluorescence polarization (AID 1964);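 note: purified POS-1 fused to maltose binding protein made in E. coli; potency of compounds blocking POS-1 binding to fluorescent RNA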
T3 sequence (G5EF15 whole entry): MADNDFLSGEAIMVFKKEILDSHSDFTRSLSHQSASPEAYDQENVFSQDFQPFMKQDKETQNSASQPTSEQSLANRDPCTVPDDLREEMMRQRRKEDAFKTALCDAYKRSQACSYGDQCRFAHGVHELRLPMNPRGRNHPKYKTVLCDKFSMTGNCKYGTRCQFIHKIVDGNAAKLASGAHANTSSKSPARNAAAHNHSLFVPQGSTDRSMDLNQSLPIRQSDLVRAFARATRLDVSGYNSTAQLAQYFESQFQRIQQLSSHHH

cells [10] = type: functional, cell-based
cells [11] = type: functional, cell-based; remark: listed apart in the source
Cytochrome P450 2C19 = Cytochrome P450 2C19 (Homo sapiens, UniProt P33261); assay: Cytochrome panel assay with activity outcomes. Panel member name: p450-cyp2c19 Compounds with AC50 equal or less than 10 uM are considered active; type: functional; details: read-out: AC50
Cytochrome P450 2C19, sequence (P33261 whole entry): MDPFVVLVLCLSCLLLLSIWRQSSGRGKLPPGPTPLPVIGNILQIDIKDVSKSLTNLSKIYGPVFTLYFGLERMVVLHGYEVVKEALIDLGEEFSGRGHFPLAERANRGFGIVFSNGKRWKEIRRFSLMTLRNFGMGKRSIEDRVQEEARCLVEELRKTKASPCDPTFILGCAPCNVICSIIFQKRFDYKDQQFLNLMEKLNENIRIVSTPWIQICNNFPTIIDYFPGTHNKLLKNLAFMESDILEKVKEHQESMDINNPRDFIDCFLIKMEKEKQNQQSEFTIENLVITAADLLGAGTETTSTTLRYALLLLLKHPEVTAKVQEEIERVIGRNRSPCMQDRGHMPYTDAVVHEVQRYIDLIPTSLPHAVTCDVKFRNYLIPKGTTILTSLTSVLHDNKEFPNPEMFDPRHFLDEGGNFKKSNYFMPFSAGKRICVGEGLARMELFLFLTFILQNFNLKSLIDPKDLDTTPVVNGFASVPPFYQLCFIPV

Streptococcus = assay: Group A Streptococcus viability loss, dose response, counter-screen for streptokinase expression inhibitor project, luminescence, BacTiterGlo (AID 1915); type: functional, organism-based;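 note: potency for reduction of bacterial viability or growth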
Streptokinase A = biological target: T4, Streptokinase A (Streptococcus pyogenes serotype M1, UniProt P10520); assay: S. pyogenes streptokinase expression inhibitors, potency, dose response, plasminogen activation absorbance, OD405 (AID 1914); type: functional, Streptococcus pyogenes M1 GAS;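 note: secreted streptokinase activity via plasminogen activation per viability signal from cell pellet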
T4 sequence (P10520 whole entry): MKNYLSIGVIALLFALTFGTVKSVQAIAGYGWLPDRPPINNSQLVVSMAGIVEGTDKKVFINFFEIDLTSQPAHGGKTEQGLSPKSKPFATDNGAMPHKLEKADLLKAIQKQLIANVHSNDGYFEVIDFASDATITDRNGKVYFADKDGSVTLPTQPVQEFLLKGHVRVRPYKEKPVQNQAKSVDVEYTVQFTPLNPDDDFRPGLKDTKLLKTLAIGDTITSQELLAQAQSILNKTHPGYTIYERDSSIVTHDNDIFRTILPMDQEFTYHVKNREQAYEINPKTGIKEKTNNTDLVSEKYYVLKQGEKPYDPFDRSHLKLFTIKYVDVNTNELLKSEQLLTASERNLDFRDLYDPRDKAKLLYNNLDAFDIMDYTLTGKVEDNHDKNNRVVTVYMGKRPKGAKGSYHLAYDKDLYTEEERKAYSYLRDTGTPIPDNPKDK

[12] = system: Streptococcus sp. 'group A'; assay: growth inhibition of control SK(-) GAS strain, dose response, counter-screen for streptokinase expression inhibitor project, luminescence, kanamycin, BacTiterGlo, confirmation (AID 1900); type: functional, organism-based
[13] = Luminescence Cell-Based Dose Confirmation HTS to Identify Activators of 5'UTR Stem-Loop Driven Alpha-Synuclein mRNA Translation in H4 Neuroglioblastoma Cells. [Related pubchem assays: 1829 (Project Summary), 1814 (Primary HTS)]; type: functional
[14] = Luminescence Cell-Based Dose Response HTS to Identify Activators of Luciferase Translation or Activity in H4 […] Cells. [Related pubchem assays: 1829 (Project Summary), 1814 (Primary HTS)]; type: functional
H4 = assay: Luminescence Cell-Based Dose Response HTS to Identify Activators of 5'UTR Stem-Loop Driven Prion Protein mRNA Translation in H4 Neuroglioblastoma Cells. [Related pubchem assays: 1829 (Project Summary), 1814 (Primary HTS)]; type: functional; details: Homo sapiens
Paired box protein Pax-8 = Paired box protein Pax-8 (Homo sapiens, UniProt Q06710); assay: inhibitors of PAX8-driven TPO luciferase reporter, dose response, RMG-I cells, cherry-pick (AID 687027); type: functional, cell-based;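 note: luciferase reporter driven by Pax8 target thyroperoxidase promoter measured by SteadyGlo luminescence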
Paired box protein Pax-8, sequence (Q06710 whole entry): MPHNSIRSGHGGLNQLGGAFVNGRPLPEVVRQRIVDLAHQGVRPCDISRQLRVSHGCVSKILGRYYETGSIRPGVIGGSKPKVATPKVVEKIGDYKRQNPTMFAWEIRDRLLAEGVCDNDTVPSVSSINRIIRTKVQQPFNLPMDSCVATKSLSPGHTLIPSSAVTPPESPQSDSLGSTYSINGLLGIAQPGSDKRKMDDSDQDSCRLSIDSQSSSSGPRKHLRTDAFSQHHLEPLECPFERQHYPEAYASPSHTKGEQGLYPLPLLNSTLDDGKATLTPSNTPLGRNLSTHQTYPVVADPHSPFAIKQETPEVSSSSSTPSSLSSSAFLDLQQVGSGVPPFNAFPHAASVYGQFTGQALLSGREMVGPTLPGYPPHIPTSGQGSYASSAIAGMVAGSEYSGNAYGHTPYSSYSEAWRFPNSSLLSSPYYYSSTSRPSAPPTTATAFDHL

[15] = inhibitors of SNCA 5'UTR-driven reporter translation, confirmation, H4 neuroglioma cells, luminescence (AID 1988); type: functional, cell-based
[16] = Luminescence Cell-Based Dose Response HTS to Identify Inhibitors of 5'UTR Stem-Loop Driven Prion Protein mRNA Translation in H4 Neuroglioblastoma Cells. [Related pubchem assays: 1827 (Project Summary), 1813 (Primary HTS)]; type: functional
[17] = inhibitors of firefly luciferase expression or activity, dose response, H4 neuroglioma cells, luminescence (AID 1990); type: functional, cell-based
[18] = inhibitors of HIV Env-driven cell fusion, dose response, cherry-pick (AID 652057); type: functional, cell-based
[19] = inhibitors of clade B AD8 Env fusion, dose response, cell-based, cherry-pick (AID 652062); type: functional;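 note: luciferase signal from cell-cell fusion driven by HIV-1 clade B AD8 Env; potency is for inhibitors of fusion seen as a drop in luminescence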
H9c2 = assay: cells; type: functional, cell-based; details: Rattus norvegicus, H9c2, Myocardium
[20] = control 3'UTR Renilla luciferase suppression, dose response, counter-screen for Shn3 inhibitor project, cell-based, Clone20-Shn3RL, cherry-picked (AID 624133); type: functional
[21] = Shn3 3'UTR reporter inhibitors, dose response, cell-based, Clone20 osteoblasts, firefly luciferase, cherry-picked (AID 624132); type: functional;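 note: firefly luciferase luminescence from reporter carrying the Shn3 3'UTR in osteoblasts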

## COc1ccc(C(=O)Nc2ccc(N3CCCC3)cc2)cc1OC
BJ [1]
  EC50: 12.9 µM (active)
BJ [2]
  EC50: 14.9 µM (active)
[3]
  EC50: 1.45 µM (active)
[4]
  EC50: 1.03 µM (active)
BJ [5]
  EC50: > 150 µM (not active)
[6]
  EC50: 11.2 µM (active)

## COC(=O)c1ccc(COc2ccccc2/C=C(\C#N)C(=O)Nc2c(C)cccc2C)cc1
INS1
  AC50: 28.4 µM (active)
[7]
  AC50: 2.46 µM (active)

## CCCNc1c(F)c(F)c2c(C)c3ccccc3nc2c1F
[8]
  EC50: 1.97 µM (active)
Cytochrome P450 2D6
  AC50: 25.1 µM (inconclusive)
Protein skinhead-1
  IC50: > 100 µM (inactive)
[9]
  EC50: > 300 µM (inconclusive)

## Cc1nc(C(=O)Nc2ccc(Cl)cc2Cl)nn1-c1cc(OC(C)C)c(Cl)cc1Cl
Cells [10]
  EC50: > 350 µM (not active)
Cells [11]
  EC50: > 350 µM (not active)
Cytochrome P450 2C19
  AC50: 7.08 µM (inconclusive)

## Cc1ccc(N=C(S)Nc2ccc(C(C)C)cc2)cc1S(=O)(=O)N1CCCCCC1
Streptococcus
  EC50: > 150 µM (not active)
Streptokinase A
  EC50: > 150 µM (not active)
[7]
  AC50: 2.1 µM (active)
[12]
  EC50: 13.2 µM (active)

## O=C(NCc1ccco1)c1cc(-c2cccs2)on1
Cells [10]
  EC50: > 350 µM (not active)
Cells [11]
  EC50: 150 µM (active)

## O=C(CC1SC(N2CCCC2)=NC1=O)Nc1ccc(C(=O)Nc2ncccc2O)cc1 (centres undefined)
[13]
  EC50: 16.5 µM (active)
[14]
  EC50: 11.1 µM (active)
Cells [10]
  EC50: > 350 µM (not active)
Cells [11]
  EC50: 40.5 µM (active)
H4
  EC50: 12.3 µM (active)

## O=C(CCCOc1ccc(Cl)cc1Cl)N/N=C/c1ccccc1O
Cells [10]
  EC50: > 350 µM (not active)
Cells [11]
  EC50: 11.8 µM (active)

## Cc1cccc2[nH]c3c(N4CC=C(c5ccc(F)cc5)CC4)ncnc3c12
Streptococcus
  EC50: 7.98 µM (active)
Streptokinase A
  EC50: > 150 µM (not active)
[7]
  AC50: 6.48 µM (active)
[12]
  EC50: 2.84 µM (active)

## Cc1ccc(/C=N/NC(=O)COc2ccccc2-c2ccccc2)cc1
Paired box protein Pax-8
  AC50: 0.77 µM (active)
BJ [1]
  EC50: 0.605 µM (inconclusive)
BJ [2]
  EC50: 0.643 µM (inconclusive)
BJ [5]
  EC50: 0.435 µM (inconclusive)
[6]
  EC50: 0.657 µM (active)

## COc1ccccc1C(c1nnnn1CC1CCCO1)N1CCC(C(N)=O)CC1 (centres undefined)
Cells [10]
  EC50: > 350 µM (not active)
Cells [11]
  EC50: > 350 µM (not active)

## COc1ccc(-c2cc(C(=O)OCC(=O)c3cccc([N+](=O)[O-])c3)c3cc(C)ccc3n2)cc1
BJ [1]
  EC50: > 150 µM (not active)
BJ [2]
  EC50: > 150 µM (not active)
BJ [5]
  EC50: > 150 µM (not active)
[6]
  EC50: > 150 µM (not active)

## O=C(COc1ccc(-c2ccccc2)cc1)N/N=C/c1cc(O)ccc1Br
Streptococcus
  EC50: 4.98 µM (active)
Streptokinase A
  EC50: 5.71 µM (active)
[7]
  AC50: 4.31 µM (active)
[12]
  EC50: 2.51 µM (active)

## O=c1c2ccccc2oc2ccc(C#CC3(O)CCCCC3)cc12
[7]
  AC50: 6.5 µM (active)

## Cc1ccc(C(=O)c2cc([N+](=O)[O-])ccc2N2CCOCC2)cc1
[15]
  EC50: 1.73 µM (active)
BJ [1]
  EC50: 36.1 µM (inconclusive)
BJ [2]
  EC50: 5.09 µM (active)
[16]
  EC50: 7.18 µM (active)
[17]
  EC50: 7.57 µM (active)
BJ [5]
  EC50: 3.32 µM (inconclusive)
[6]
  EC50: 2.27 µM (active)

## COc1ccc(CCNC(=O)CSc2nc(-c3ccc(OC)c(OC)c3)ccc2C#N)cc1
Cells [10]
  EC50: > 350 µM (not active)
Cells [11]
  EC50: > 350 µM (not active)

## CCC(=O)N(C)C[C@@H]1Oc2cc(C#Cc3ccccc3)ccc2S(=O)(=O)N([C@@H](C)CO)C[C@H]1C
[18]
  AC50: 26.2 µM (active)
[19]
  AC50: 30.3 µM (active)

## Cc1ccc(S(=O)(=O)N(C)C[C@@H]2Oc3ccc(NC(=O)Cc4ccccc4)cc3CC(=O)N([C@H](C)CO)C[C@@H]2C)cc1
[18]
  AC50: < 0.26 µM (active)
[19]
  AC50: 2.32 µM (active)

## COc1cccc(/C=N/Nc2nc3ccccc3n3cnnc23)c1
[15]
  EC50: 15.6 µM (active)
[16]
  EC50: > 120 µM (not active)
H9c2
  IC50: > 79 µM (inactive)
Cells [10]
  EC50: 191 µM (active)
Cells [11]
  EC50: > 350 µM (not active)
[17]
  EC50: > 120 µM (not active)

## N#C/C(=C(\O)Cc1ccccc1)c1nc2ccccc2[nH]1
[20]
  AC50: 23.2 µM (active)
[21]
  AC50: > 70 µM (inactive)
